From US20150315188A1, “COMPOUNDS AND METHODS FOR TREATMENT OF HYPERTENSION” (MEDIVATION TECHNOLOGIES, INC., priority 2012, published 2015) come the findings set out here.

Assay [1] concerns the target T1, rat adrenergic α1B receptor (Rattus norvegicus, UniProt P15823).
T1 construct: rat adrenergic α1B receptor obtained from Wistar Rat liver; from tissue; host or cells: Wistar rat liver
T1 sequence (P15823 1-515): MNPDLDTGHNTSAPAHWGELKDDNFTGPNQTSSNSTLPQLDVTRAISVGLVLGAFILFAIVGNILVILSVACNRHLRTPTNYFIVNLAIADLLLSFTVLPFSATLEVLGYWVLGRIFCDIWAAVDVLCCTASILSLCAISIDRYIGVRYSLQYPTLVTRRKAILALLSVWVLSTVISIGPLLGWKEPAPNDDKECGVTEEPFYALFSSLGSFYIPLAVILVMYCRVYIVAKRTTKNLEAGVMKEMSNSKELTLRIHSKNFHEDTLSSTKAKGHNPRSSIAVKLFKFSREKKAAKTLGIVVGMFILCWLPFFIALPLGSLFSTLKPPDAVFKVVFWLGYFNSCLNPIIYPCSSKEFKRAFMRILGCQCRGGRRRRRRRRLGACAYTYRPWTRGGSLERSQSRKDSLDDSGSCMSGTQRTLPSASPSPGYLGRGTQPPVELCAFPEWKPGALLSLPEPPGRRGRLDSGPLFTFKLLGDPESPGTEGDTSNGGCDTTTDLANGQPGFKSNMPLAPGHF
Kind of assay: Radioligand binding, adrenergic α1B (Protocol Group A). Conditions: 0.1 μM compound, [3H]Prazosin; for percent inhibition of specific binding, Adrenergic α1B: 0.1 µM; for inhibition at 0.1 µM: read-out: percent inhibition of specific binding, Adrenergic α1B. The protocol:
To evaluate in radioligand binding assays the activity of compounds of the invention, rat adrenergic α1B receptor obtained from Wistar Rat liver (Garcia-S'ainz, J. et al, Biochem. Biophys. Res. Commun. 186:760, 1992; Michel, A. et al, Br. J. Pharmacol. 98:883, 1989) in a modified Tris-HCl buffer (50 mM Tris-HCl buffer, pH 7.4, 0.5 mM EDTA) was used. Compounds of the invention were incubated with 0.25 nM [^3H]Prazosin for 60 min at 25° C. Non-specific binding was estimated in the presence of 10 μM phentolamine. Receptor proteins were filtered and washed, the filters were then counted to determine [^3H]Prazosin specifically bound. Compounds were screened at 1 μM or lower, using 1% DMSO as vehicle. Compounds of the invention were tested in this biochemical assay and percent inhibition of specific binding was determined. Biochemical assay results are presented as the percent inhibition of specific binding in Table B1a.

Assay [2] addresses T2, Human adrenergic α2B receptor (Homo sapiens, UniProt P18089).
T2 sequence (P18089 1-450): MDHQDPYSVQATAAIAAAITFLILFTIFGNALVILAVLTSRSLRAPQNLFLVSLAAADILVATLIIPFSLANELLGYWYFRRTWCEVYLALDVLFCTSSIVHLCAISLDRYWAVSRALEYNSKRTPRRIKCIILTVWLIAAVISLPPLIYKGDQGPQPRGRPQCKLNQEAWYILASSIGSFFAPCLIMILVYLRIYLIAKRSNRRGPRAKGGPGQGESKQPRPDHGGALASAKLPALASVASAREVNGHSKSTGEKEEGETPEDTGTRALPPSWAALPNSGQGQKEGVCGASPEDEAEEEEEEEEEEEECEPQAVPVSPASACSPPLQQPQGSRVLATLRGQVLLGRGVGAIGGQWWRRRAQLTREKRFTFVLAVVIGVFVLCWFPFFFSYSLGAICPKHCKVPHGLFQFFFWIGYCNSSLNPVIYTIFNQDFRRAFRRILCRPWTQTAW
Kind of assay: Radioligand binding, adrenergic α2B (Protocol Group A). Details: expressed in transfected cells; host or cells: CHO-K1. The note with it: 0.03 μM compound, [3H]Rauwolscine; for percent inhibition of specific binding, Adrenergic α2B: 0.03 µM; for inhibition at 0.03 µM: read-out: percent inhibition of specific binding, Adrenergic α2B. The protocol:
To evaluate in radioligand binding assays the activity of compounds of the invention, human recombinant adrenergic α2B receptor expressed in Chinese hamster ovary (CHO) K1 cells (Uhlen, S. et al, Eur. J. Pharmacol. 343(1):93, 1998) in a modified Tris-HCl buffer (50 mM Tris-HCl, pH 7.4, 12.5 mM MgCl2, 1 mM EDTA, 0.2% BSA) was used. Compounds of the invention were incubated with 2.5 nM [3H]Rauwolscine for 60 min at 25° C. Non-specific binding was estimated in the presence of 10 μM Prazosin. Receptor proteins were filtered and washed, the filters were then counted to determine [3H]Rauwolscine specifically bound. Compounds were screened at 1 μM or lower, using 1% DMSO as vehicle. Compounds of the invention were tested in this biochemical assay and percent inhibition of specific binding was determined. Biochemical assay results are presented as the percent inhibition of specific binding in Table B1a.

In assay [3] the target is T3, Human adrenergic α2A receptor (Homo sapiens, UniProt P08913).
T3 sequence (P08913 1-465): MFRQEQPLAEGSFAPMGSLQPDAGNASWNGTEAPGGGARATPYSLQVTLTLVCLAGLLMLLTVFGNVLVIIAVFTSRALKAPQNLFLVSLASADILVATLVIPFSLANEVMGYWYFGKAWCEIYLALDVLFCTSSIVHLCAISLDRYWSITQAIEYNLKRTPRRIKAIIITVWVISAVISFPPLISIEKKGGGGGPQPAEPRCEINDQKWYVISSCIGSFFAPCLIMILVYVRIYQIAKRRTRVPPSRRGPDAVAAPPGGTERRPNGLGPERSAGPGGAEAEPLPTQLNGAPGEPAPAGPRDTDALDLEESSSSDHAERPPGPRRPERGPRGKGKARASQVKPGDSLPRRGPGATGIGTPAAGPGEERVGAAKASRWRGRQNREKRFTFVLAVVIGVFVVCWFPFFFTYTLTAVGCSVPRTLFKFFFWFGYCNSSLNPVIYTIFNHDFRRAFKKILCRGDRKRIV
The assay can be described thus: Radioligand binding, adrenergic α2A (Protocol Group A). Details: expressed in transfected cells; host or cells: insect Sf9 cells. The note with it: 0.1 μM compound; for percent inhibition of specific binding, Adrenergic α2A: [3H]MK-912, 0.1 µM; for inhibition at 0.1 µM: [3H]MK-912, read-out: percent inhibition of specific binding, Adrenergic α2A. The procedure:
To evaluate in radioligand binding assays the activity of compounds of the invention, human recombinant adrenergic α2A receptor expressed in insect Sf9 cells (Uhlen, S. et al, J. Pharmacol. Exp. Ther. 271:1558, 1994) in a modified Tris-HCl buffer (50 mM Tris-HCl, pH 7.4, 12.5 mM MgCl2, 2 mM EDTA) was used. Compounds of invention were incubated with 1 nM [^3H]MK-912 for 60 min at 25° C. MK912 is (2S-trans)-1,3,4,5′,6,6′,7,12b-octahydro-1′,3′-dimethyl-spiro[2H-benzofuro[2,3-a]quinolizine-2,4′(1′H)-pyrimidin]-2′(3′H)-one hydrochloride. Non-specific binding was estimated in the presence of 10 μM WB-4101 (2-(2,6-Dimethoxyphenoxyethyl)aminomethyl-1,4-benzodioxane hydrochloride). Receptor proteins were filtered and washed, the filters were then counted to determine [^3H]MK-912 specifically bound. Compounds were screened at 1 μM or lower, using 1% DMSO as vehicle. Compounds of the invention were tested in this biochemical assay and percent inhibition of specific binding was determined. Biochemical assay results are presented as the percent inhibition of specific binding in Table B1a.

Regarding `c1cncc(CCn2c3c(c4ccccc42)C2CCCN2CC3)c1` (single isomer, unassigned) [2a], the “percent inhibition of specific binding, Adrenergic α1B” value (from here on “percent inhibition … Adrenergic α1B”) in assay [1] is 28%. The “percent inhibition of specific binding, Adrenergic α2B” value (from here on “percent inhibition … Adrenergic α2B”) in assay [2] was found to be 102%. For the same molecule, the “percent inhibition of specific binding, Adrenergic α2A” value (from here on “percent inhibition … Adrenergic α2A”) in assay [3] was found to be 31%.

Consider `c1cncc(CCn2c3c(c4ccccc42)C2CCCN2CC3)c1` (single isomer, unassigned) [2b], for which the “percent inhibition … Adrenergic α1B” value in assay [1] stood at 4%. Besides, the “percent inhibition … Adrenergic α2B” value in assay [2] is reported as 1%. Moreover, the “percent inhibition … Adrenergic α2A” value in assay [3] is given as 13%.

As for `Cc1ccc2c(c1)c1c(n2CC(OC(=O)N2CCCC2)c2ccncc2)CCN(C)C1` (single isomer, unassigned) [4a], the “percent inhibition … Adrenergic α1B” value in assay [1] worked out at 11%. Also, in assay [2], the “percent inhibition … Adrenergic α2B” value stood at 39%. Also, the inhibition at 0.1 µM in assay [3] was 21%.

In the case of `Cc1ccc(C(F)Cn2c3c(c4cccnc42)C2CCCN2CC3)cn1` (single isomer, unassigned) [10a], the “percent inhibition … Adrenergic α1B” value in assay [1] was −3%. For the same molecule, in assay [2], the “percent inhibition … Adrenergic α2B” value is listed as 4%. For the same molecule, in assay [3], the “percent inhibition … Adrenergic α2A” value came to 0%.

In the case of `Cc1ccc(C(F)Cn2c3c(c4cccnc42)C2CCCN2CC3)cn1` (single isomer, unassigned) [10b], in assay [1], the “percent inhibition … Adrenergic α1B” value was −5%. In addition, the “percent inhibition … Adrenergic α2B” value in assay [2] is reported as 16%. Further, the “percent inhibition … Adrenergic α2A” value in assay [3] is given as −1%.

For the molecule `Cc1ccc2c(c1)c1c(n2CC(C)(O)c2ccc(F)nc2)CCN2CCCC12` (stereo not drawn) [6b], the inhibition at 0.1 µM in assay [1] was determined as 61%; in assay [3] it was 29%. The inhibition at 0.03 µM in assay [2] came out at 93%.

Take `Cc1ccc2c(c1)c1c(n2CCc2cncc(S(C)(=O)=O)c2)CCN(C)C1` [Compound No. 1, 2,8-dimethyl-5-(2-(5-(methylsulfonyl)pyridin-3-yl)ethyl)-2,3,4,5-tetrahydro-1H-pyrido[4,3-b]indole]: the results for the inhibition at 0.1 µM in assay [1] and in assay [3] were 18% and 3%, respectively. The inhibition at 0.03 µM in assay [2] came to 64%.

In the case of `Cc1ccc2c(c1)c1c(n2/C=C/c2ccncc2)CCN2CCCC12` (stereo not drawn) [Compound No. 7, (E)-10-methyl-7-(2-(pyridin-4-yl)vinyl)-2,3,5,6,7,11c-hexahydro-1H-indolizino[7,8-b]indole], the results for the inhibition at 0.1 µM in assay [1] and in assay [3] were 99% and 93%, respectively. In assay [2], the inhibition at 0.03 µM stood at 108%.

Turning to `Cc1ccc2c(c1)c1c(n2CC(OCCCC(=O)O)c2ccncc2)CCN(C)C1` (stereo not drawn) [compound 3, 4-(2-(2,8-dimethyl-3,4-dihydro-1H-pyrido[4,3-b]indol-5 (2H)-yl)-1-(pyridin-4-yl)ethoxy)butanoic acid], the inhibition at 0.1 µM was -5% in assay [1] and 5% in assay [3]. In assay [2], the inhibition at 0.03 µM is 7%.

`Cc1ccc2c(c1)c1c(n2CC(OC(=O)N2CCCC2)c2ccncc2)CCN(C)C1` (stereo not drawn) [compound 4, 2-(2,8-dimethyl-3,4-dihydro-1H-pyrido[4,3-b]indol-5(2H)-yl)-1-(pyridin-4-yl)ethyl pyrrolidine-1-carboxylate]: the “percent inhibition … Adrenergic α1B” value in assay [1] is listed as 27%. Further, the “percent inhibition … Adrenergic α2B” value in assay [2] amounted to 78%. Besides, in assay [3], the “percent inhibition … Adrenergic α2A” value came out at 33%.

For `Cc1ccc2c(c1)c1c(n2CC(OC(=O)N2CCN(C)CC2)c2ccncc2)CCN(C)C1` (stereo not drawn) [compound 5, 2-(2,8-dimethyl-3,4-dihydro-1H-pyrido[4,3-b]indol-5 (2H)-yl)-1-(pyridin-4-yl)ethyl 4-methylpiperazine-1-carboxylate], the inhibition at 0.1 µM worked out at 5% in assay [1] and 10% in assay [3]. Further, the inhibition at 0.03 µM in assay [2] was 13%.

`Cc1ccc2c(c1)c1c(n2CC(OC(N)=O)c2ccncc2)CCN(C)C1` (stereo not drawn) [compound 8, 2-(2,8-dimethyl-3,4-dihydro-1H-pyrido[4,3-b]indol-5 (2H)-yl)-1-(pyridin-4-yl)ethyl carbamate]: the results for the inhibition at 0.1 µM in assay [1] and in assay [3] were 1% and 11%, respectively. Besides, the inhibition at 0.03 µM in assay [2] came to 42%.

With `Cc1ccc2c(c1)c1c(n2C(CC(C)(C)C)C(=O)c2ccncc2)CCN(C)C1` (stereo not drawn) [compound 9, 2-(2,8-dimethyl-3,4-dihydro-1H-pyrido[4,3-b]indol-5 (2H)-yl)-4,4-dimethyl-1-(pyridin-4-yl)pentan-1-one], the inhibition at 0.1 µM in assay [1] stood at 77%; in assay [3] it was 85%. Further, the inhibition at 0.03 µM in assay [2] worked out at 107%.

By inhibition is commonly meant the drop in the measured response relative to a control, in per cent.
